Measured values published in patent US7238374B2, “Process and substances for the release of a growth-regulating factor from endothelial cells” (priority 1998, dated 2007).

What was measured:
[1] = Partition between octanol and aqueous phosphate buffer pH 7; type: physicochemical
Description: Cells in a culture medium can be viewed as a two-phase system consisting of water and lipids. The distribution of the alkaloids in cell cultures and in mixtures of octanol and water was studied. […] The alkaloids were partitioned between equal volumes of octanol and aqueous phosphate buffer pH 7 (0.01 M) at 20° C. The concentrations c of the alkaloids were determined by HPLC analysis and the coefficients of distribution [formula] were calculated.

[2] = Equilibria of isomers in an octanol-water two-phase system; type: physicochemical; details: octanol-water system (1:1) with mitraphylline and isomitraphylline, approximately pH 5
Text: As expected the equilibrium of isomers in a two-phase system (1aq ? 1org, 2aq ? 2org, FIG. 3) depends not only on the pH value of the aqueous phase but also on the amount and nature of the organic phase, For an example, the equilibria of mitraphylline and isomitraphylline in an octanol-water system (1:1) at pH values from 3 to 7 are shown (FIG. 4). It can be seen that in the pH range from 4 to 7 isomitraphylline is predominant in the octanol phase, with a maximum of 94 mol-% at approximately pH 5. However, below pH 3 mitraphylline begins to prevail in the aqueous phase. At no pH value is isomitraphylline produced in the aqueous phase to a reasonable extent. Therefore, the distribution of the isomers in a 2-phase system is clearly different compared to the situation in a purely aqueous solution.

[3] = stimulant IMM-2418 (1.1 μM)
Description: A RPMI-1640 culture medium (Sigma-Aldrich Company, St. Louis, USA) completed with 10% by volume fetal calf serum, 2 mM glutamin, 50 units/ml penicillin G, and 50 μg/ml streptomycin was used.

[4] = octanol / aqueous phosphate buffer pH 7 (0.01 M), equal volumes, 20° C.

SMILES	log KO/W (common logarithm of the partition coefficient) ([1]; pH 7)	log KO/W (common logarithm of the partition coefficient) [1, 4]	other results
COC(=O)C1=CO[C@@H](C)[C@H]2CN3CC[C@@]4(C(=O)Nc5ccccc54)[C@@H]3C[C@H]12 [Isomitraphylline]	2.8	–	equilibrium concentration in the octanol phase, maximum [2]: 94 mol-%
COC(=O)C1=CO[C@@H](C)[C@@H]2CN3CC[C@@]4(C(=O)Nc5ccccc54)[C@@H]3C[C@H]12 [Isopteropodine]	3.2	–	–
CC[C@H]1CN2CC[C@@]3(C(=O)Nc4ccccc43)[C@@H]2C[C@@H]1/C(=C\OC)C(=O)OC [Isorhynchophylline]	–	3.1	alkaloid concentration in RPMI-1640 nutrient medium, 7 Days [3]: 0.27 mg/L; alkaloid concentration in RPMI-1640 nutrient medium, Start [3]: 0.27 mg/L
COC(=O)C1=CO[C@@H](C)[C@H]2CN3CC[C@]4(C(=O)Nc5ccccc54)[C@@H]3C[C@H]12 [Mitraphylline]	2.5	–	–
COC(=O)C1=CO[C@@H](C)[C@@H]2CN3CC[C@]4(C(=O)Nc5ccccc54)[C@@H]3C[C@H]12 [Pteropodine]	2.9	–	–
CC[C@H]1CN2CC[C@]3(C(=O)Nc4ccccc43)[C@@H]2C[C@@H]1/C(=C\OC)C(=O)OC [Rhynchophylline]	–	2.7	alkaloid concentration in RPMI-1640 nutrient medium, 7 Days [3]: 0.13 mg/L; alkaloid concentration in RPMI-1640 nutrient medium, Start [3]: 0.15 mg/L
COC(=O)C1=CO[C@@H](C)[C@@H]2CN3CC[C@@]4(C(=O)Nc5ccccc54)[C@H]3C[C@H]12 [Speciophylline]	1.4	–	–
COC(=O)C1=CO[C@@H](C)[C@@H]2CN3CC[C@]4(C(=O)Nc5ccccc54)[C@H]3C[C@H]12 [Uncarine F]	–	3.1	–
